Among the test systems are SF-539 CNS; U251 CNS; HL-60(TB) leukemia; SNB-19 CNS; OVCAR-3 ovarian; COLO 205 colon; NCI-H23 lung; A498 renal; UACC-62 melanoma; K-562 leukemia.
Holding throughout (assay): growth of human tumour cells (NCI), 48 h

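Interpolation was linear, between the two tested concentrations surrounding the appropriate level; five concentrations were tested over 48 hours in 96-well plates. GI50 marks 50% less growth. TGI: total growth inhibition.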

Regarding `C=C1[C@@H]([C@@]2(C)C=CC(=O)C(C)(C)[C@@H]2CC(=O)OC)CC[C@@]2(C)C(c3ccoc3)OC(=O)[C@H]3O[C@]132` (stereo partly drawn), the TGI with SF-539 CNS, with U251 CNS, with HL-60(TB) leukemia, in the experiment with SNB-19 CNS, with OVCAR-3 ovarian and in the experiment on COLO 205 colon was more than 100 µM each time. Besides, the TGI with NCI-H23 lung, in the experiment with A498 renal and in the experiment on UACC-62 melanoma was more than 100 µM throughout.
Regarding `CC1=C(C(=O)Nc2ccc([N+](=O)[O-])cc2)C(c2ccccc2F)C(C(=O)Nc2ccc([N+](=O)[O-])cc2)=C(C)N1`, the TGI was more than 100 µM in the experiment with SF-539 CNS; more than 100 µM in the experiment on K-562 leukemia; 76.6 µM in the experiment on U251 CNS; 24.7 µM in the experiment with HL-60(TB) leukemia; more than 100 µM in the experiment with SNB-19 CNS; 39.8 µM in the experiment with OVCAR-3 ovarian. Moreover, the figures for the TGI with COLO 205 colon, in the experiment on NCI-H23 lung and with A498 renal were 29.7 µM, 44.4 µM and 34.9 µM, respectively.
Regarding `COc1cc(/C=C/C(=O)c2cccnc2Nc2ccc(F)cc2)cc(OC)c1OC`, the GI50 in the experiment with SF-539 CNS was 2.85 µM; in the experiment on U251 CNS, 2.78 µM; in the experiment with HL-60(TB) leukemia it was 2.4 µM; in the experiment on SNB-19 CNS, 3.73 µM; with OVCAR-3 ovarian, 2.63 µM; in the experiment with COLO 205 colon it was 2.64 µM. Further, the GI50 with NCI-H23 lung is 2.34 µM; with A498 renal, 2.18 µM; in the experiment on UACC-62 melanoma, 2.35 µM. The TGI in the experiment on SF-539 CNS turned out to be 7.29 µM; in the experiment with U251 CNS, 11.5 µM; with HL-60(TB) leukemia it was 7.15 µM; with SNB-19 CNS, 33.2 µM; in the experiment with OVCAR-3 ovarian, 6.61 µM; in the experiment on COLO 205 colon it was 5.53 µM. Besides, the TGI turned out to be 7.77 µM in the experiment on NCI-H23 lung, 8.28 µM with A498 renal and 6.58 µM with UACC-62 melanoma.
As for `COc1ccc(Nc2cc(C)nc(N3CCN(c4ccnc5cc(Cl)ccc45)CC3)n2)cc1`, the GI50 with K-562 leukemia is 2.34 µM; in the experiment on U251 CNS, 3.06 µM; with HL-60(TB) leukemia it was 3.12 µM; in the experiment on SNB-19 CNS, 4.83 µM; with OVCAR-3 ovarian, 2.31 µM; with COLO 205 colon, 1.96 µM. Moreover, the GI50 is 3.82 µM in the experiment on NCI-H23 lung, 0.832 µM with A498 renal and 1.71 µM in the experiment with UACC-62 melanoma. In addition, the TGI was more than 100 µM in the experiment on K-562 leukemia; 36.6 µM with U251 CNS; 12.8 µM in the experiment on HL-60(TB) leukemia; more than 100 µM in the experiment on SNB-19 CNS; 6.15 µM in the experiment with OVCAR-3 ovarian; 3.96 µM in the experiment on COLO 205 colon. The TGI in the experiment with NCI-H23 lung is more than 100 µM; in the experiment with A498 renal, 7.26 µM; with UACC-62 melanoma, 5.93 µM.
Take `CCN(CC)CCSCCCNc1c2ccc(Cl)cc2nc2ccc(OC)cc12`: the GI50 in the experiment on SF-539 CNS is 1.4 µM; in the experiment on U251 CNS it was 1.7 µM; in the experiment with HL-60(TB) leukemia, 1.55 µM; with SNB-19 CNS, 1.25 µM; in the experiment with OVCAR-3 ovarian it was 1.3 µM; with COLO 205 colon it was 0.8 µM. The GI50 was 1.32 µM in the experiment with NCI-H23 lung, 0.654 µM in the experiment on A498 renal and 1.93 µM in the experiment on UACC-62 melanoma. The TGI in the experiment with SF-539 CNS amounted to 2.97 µM; in the experiment with U251 CNS, 3.32 µM; with HL-60(TB) leukemia, 4.11 µM; in the experiment with SNB-19 CNS it was 4.88 µM; in the experiment with OVCAR-3 ovarian it was 4.18 µM; with COLO 205 colon, 2.25 µM. Moreover, the TGI worked out at 3.28 µM in the experiment on NCI-H23 lung, 2.16 µM in the experiment with A498 renal and 3.87 µM in the experiment on UACC-62 melanoma.
For `COc1ccc(-c2nn(-c3cccc(NC(=O)c4ccc(N5CCOCC5)c(C(F)(F)F)c4)c3)cc2-c2ccncc2)cc1Cl`, the GI50 is 2.66 µM in the experiment on SF-539 CNS; 1.89 µM in the experiment on K-562 leukemia; 1.14 µM in the experiment on U251 CNS; 4.42 µM with HL-60(TB) leukemia; 46.8 µM in the experiment with SNB-19 CNS; 4.25 µM with COLO 205 colon. Moreover, the GI50 was 29.9 µM in the experiment with NCI-H23 lung, 2.44 µM in the experiment with A498 renal and 8.69 µM with UACC-62 melanoma. In addition, the TGI is 36.3 µM in the experiment with SF-539 CNS; more than 50 µM in the experiment with K-562 leukemia; more than 50 µM in the experiment on U251 CNS; more than 50 µM with HL-60(TB) leukemia; more than 50 µM with SNB-19 CNS; more than 50 µM with COLO 205 colon. Also, the results for the TGI in the experiment on NCI-H23 lung, with A498 renal and with UACC-62 melanoma were more than 50 µM, 26.4 µM and more than 50 µM, respectively.
`COC(=O)C1=C(c2ccc3c(c2)OCO3)OC(c2cc(OC)c(OC)c(OC)c2)C1` (stereo not drawn): the TGI in the experiment with SF-539 CNS is 87.8 µM; in the experiment on K-562 leukemia it was more than 100 µM; in the experiment on U251 CNS, more than 100 µM; in the experiment with SNB-19 CNS it was more than 100 µM; in the experiment with OVCAR-3 ovarian it was 4.26 µM; in the experiment with COLO 205 colon, 3.98 µM. Moreover, the figures for the TGI in the experiment on NCI-H23 lung, with A498 renal and in the experiment on UACC-62 melanoma were more than 100 µM, 8.04 µM and 19.2 µM, respectively.
`O=C1CC(c2ccc(Cl)cc2)Oc2ccccc21` (stereo not drawn): the TGI with SF-539 CNS was 26.1 µM; in the experiment on K-562 leukemia, 9.46 µM; with U251 CNS it was more than 100 µM; in the experiment on HL-60(TB) leukemia, 34.1 µM; with SNB-19 CNS it was 77.7 µM; in the experiment on COLO 205 colon it was 89.1 µM. The results for the TGI in the experiment on NCI-H23 lung, in the experiment on A498 renal and in the experiment with UACC-62 melanoma were 40.2 µM, 73 µM and 49.8 µM, respectively.

These data come from PubChem BioAssay (NCI).
